Where two headings read alike, the source gives them in different places.
What was measured:
GST-Bcl-2 = GST-Bcl-2 (Homo sapiens, UniProt P10415); assay: TR-FRET Bcl-2 binding assay (F-Bak peptide probe); settings: GST-Bcl-2 1 nM, F-Bak peptide probe 100 nM, Tb-anti-GST 1 nM; Wang's equation; '<' = below limit of detection
Experimental: Determination of the utility of compounds of this invention as binders to and inhibitors of anti-apoptotic Bcl-2 proteins was performed using the Time Resolved-Fluorescence Resonance Energy Transfer (TR-FRET) Assay. Tb-anti-GST antibody was purchased from Invitrogen (Catalog No. PV4216).
Representative compounds were serially diluted in dimethyl sulfoxide (DMSO) starting at 50 μM (2× starting concentration; 10% DMSO) and 10 μL were transferred into a 384-well plate. The samples are then mixed on a shaker for 1 minute and incubated for an additional 3 hours at room temperature. For each assay, the probe/antibody and protein/probe/antibody were included on each assay plate as negative and positive controls, respectively. Fluorescence was measured on the Envision (Perkin Elmer) using a 340/35 nm excitation filter and 520/525 (F-Bak peptide) and 495/510 nm (Tb-labeled […] antibody) emission filters. Dissociation constants (Ki) are shown in TABLE 2 below and were determined using Wang's equation (Wang Z.-X., An Exact Mathematical Expression For Describing Competitive Binding Of Two Different Ligands To A Protein Molecule. FEBS Lett. 1995, 360:111-4).
The samples were then mixed on a shaker for 1 minute and incubated for an additional 3 hours at room temperature. For each assay, the probe/antibody and protein/probe/antibody were included on each assay plate as negative and positive controls, respectively. Fluorescence was measured on the Envision (Perkin Elmer) using a 340/35 nm excitation filter and 520/525 (F-Bak peptide) and 495/510 nm (Tb-labeled anti-Histidine antibody) emission filters.
Inhibition constants (Ki) for compounds were determined using Wang's equation (Wang Zx. An Exact Mathematical Expression For Describing Competitive Binding Of Two Different Ligands To A Protein Molecule. FEBS Lett. 1995, 360:111-4).
The inhibition constant (Ki) is the dissociation constant of an enzyme-inhibitor complex or a protein/small molecule complex, wherein the small molecule is inhibiting binding of one protein to another protein or peptide. So a large Ki value indicates a low binding affinity and a small Ki value indicates a high binding affinity. […] The compounds are therefore expected to have utility in treatment of diseases during which anti-apoptotic Bcl-2 protein is expressed. Biological Data

RS4;11 cells = assay: RS4;11 cell viability assay (CellTiter Glo); assay type: cell-based; settings: 10% human serum, 48 hours
Excerpt: The acute lymphoblastic leukemia (ALL) cell line RS4;11 was used as the primary human cell line to assess the cellular activity of Bcl-2 selective agents in vitro and their efficacy in vivo. Previous studies have shown by BH3 profiling, a mitochondrial assay that classifies blocks in the intrinsic apoptotic pathway, that RS4;11 cells were highly dependant on BCL-2 for survival and sensitive to the Bcl-2 family member inhibitor ABT-737 (Blood, 2008, Vol. 111, 2300-2309).
RS4;11 cells were cultured in RPMI-1640 supplemented with 2 mM L-glutamine, 10% FBS, 1 mM sodium pyruvate, 2 mM HEPES, 1% penicillin/streptomycin (Invitrogen), 4.5 g/L glucose and maintained at 37 C containing 5% CO2. To test for the cellular activity of compounds in vitro, cells were treated at 50,000 cells per well in 96-well microtiter plates in the presence of 10% human serum for 48 hours in a humidified chamber with 5% CO2. Cell cytotoxicity EC50 values were assessed using CellTiter Glo (Promega) according to the manufacturer's recommendations. The EC50 values were determined as a percentage of viable cells following treatment compared to the untreated control cells.

lymphocytes = assay: Lymphocyte reduction in C57BL/6 mice; assay type: in vivo; settings: Mus musculus, ip
Experimental: An experiment was performed to evaluate the effect of Bcl-2 selective/Bcl-xL sparing compounds on immune cells and platelets, as evaluated in C57Bl/6 mice. Mice were treated four days with compounds (doses of 30 mg/kg, administered by intraperitoneal injection every day) and cell numbers were measured with a Cell Dyn hematology analyzer 24 hours after the first and last doses. Exposure of the compound (area under the curve) was calculated by using time points of 1, 6, 10 and 24 hours after the last dose.

[1] = 30 mg/kg intraperitoneal every day for four days, 24 hours after the last dose, read-out: Lymphocyte reduction % inh. day 4
[2] = 30 mg/kg intraperitoneal every day, 24 hours after the first dose, read-out: Lymphocyte reduction % inh. day 1

Sequence of GST-Bcl-2 (P10415 whole entry): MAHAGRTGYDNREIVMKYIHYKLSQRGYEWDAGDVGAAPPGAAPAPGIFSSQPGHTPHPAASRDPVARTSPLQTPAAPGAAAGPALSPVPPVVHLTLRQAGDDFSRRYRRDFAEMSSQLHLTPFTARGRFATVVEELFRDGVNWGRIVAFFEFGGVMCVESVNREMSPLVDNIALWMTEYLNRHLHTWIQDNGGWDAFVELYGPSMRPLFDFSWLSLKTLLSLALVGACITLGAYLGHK

Compound	Ki (GST-Bcl-2) [nM]	EC50 (RS4;11 cells) [nM]	inhibition at 30 mg/kg (lymphocytes; [1]) [%]	inhibition at 30 mg/kg (lymphocytes; [2]) [%]
CC1(C)CCC(CN2CCN(c3ccc(C(=O)NS(=O)(=O)c4ccc(NC[C@@H]5COCCO5)c([N+](=O)[O-])c4)c(Oc4cnc5[nH]ccc5c4)c3)CC2)=C(c2ccc(Cl)cc2)C1 [Example 1, 4-(4-{[2-(4-chlorophenyl)-4,4-dimethylcyclohex-1-en-1-yl]methyl}piperazin-1-yl)-N-[(4-{[(2R)-1,4-dioxan-2-ylmethyl]amino}-3-nitrophenyl)sulfonyl]-2-(1H-pyrrolo[2,3-b]pyridin-5-yloxy)benzamide]	< 0.1	5.3	41	41
C[C@@H](Nc1ccc(S(=O)(=O)NC(=O)c2ccc(N3CCN(CC4=C(c5ccc(Cl)cc5)CC(C)(C)CC4)CC3)cc2Oc2cnc3[nH]ccc3c2)cc1[N+](=O)[O-])C1CCOCC1 [Example 3, 4-(4-{[2-(4-chlorophenyl)-4,4-dimethylcyclohex-1-en-1-yl]methyl}piperazin-1-yl)-N-[(3-nitro-4-{[(1R)-1-(tetrahydro-2H-pyran-4-yl)ethyl]amino}phenyl)sulfonyl]-2-(1H-pyrrolo[2,3-b]pyridin-5-yloxy)benzamide]	< 0.1	150	< 15	< 15
CC1(C)CCC(CN2CCN(c3ccc(C(=O)NS(=O)(=O)c4ccc(NC[C@H]5CC[C@@]6(CCCO6)CC5)c([N+](=O)[O-])c4)c(Oc4cnc5[nH]ccc5c4)c3)CC2)=C(c2ccc(Cl)cc2)C1 [Example 5, 4-(4-{[2-(4-chlorophenyl)-4,4-dimethylcyclohex-1-en-1-yl]methyl}piperazin-1-yl)-N-[(3-nitro-4-{[(5R,8R)-1-oxaspiro[4.5]dec-8-ylmethyl]amino}phenyl)sulfonyl]-2-(1H-pyrrolo[2,3-b]pyridin-5-yloxy)benzamide]	< 0.1	5.2	45	47
CC1(C)CCC(CN2CCN(c3ccc(C(=O)NS(=O)(=O)c4ccc(NCC5(O)CCOCC5)c([N+](=O)[O-])c4)c(Oc4cnc5[nH]ccc5c4)c3)CC2)=C(c2ccc(Cl)cc2)C1 [Example 6, 4-(4-{[2-(4-chlorophenyl)-4,4-dimethylcyclohex-1-en-1-yl]methyl}piperazin-1-yl)-N-[(4-{[(4-hydroxytetrahydro-2H-pyran-4-yl)methyl]amino}-3-nitrophenyl)sulfonyl]-2-(1H-pyrrolo[2,3-b]pyridin-5-yloxy)benzamide]	< 0.1	7.6	24	< 15
CC1(C)CCC(CN2CCN(c3ccc(C(=O)NS(=O)(=O)c4ccc(NC[C@H]5COCCO5)c([N+](=O)[O-])c4)c(Oc4cnc5[nH]ccc5c4)c3)CC2)=C(c2ccc(Cl)cc2)C1 [Example 9, 4-(4-{[2-(4-chlorophenyl)-4,4-dimethylcyclohex-1-en-1-yl]methyl}piperazin-1-yl)-N-[(4-{[(2S)-1,4-dioxan-2-ylmethyl]amino}-3-nitrophenyl)sulfonyl]-2-(1H-pyrrolo[2,3-b]pyridin-5-yloxy)benzamide]	< 0.1	2.2	58	69
CC1(C)CCC(CN2CCN(c3ccc(C(=O)NS(=O)(=O)c4ccc(NCC5(CO)CCOCC5)c([N+](=O)[O-])c4)c(Oc4cnc5[nH]ccc5c4)c3)CC2)=C(c2ccc(Cl)cc2)C1 [Example 10, 4-(4-{[2-(4-chlorophenyl)-4,4-dimethylcyclohex-1-en-1-yl]methyl}piperazin-1-yl)-N-{[4-({[4-(hydroxymethyl)tetrahydro-2H-pyran-4-yl]methyl}amino)-3-nitrophenyl]sulfonyl}-2-(1H-pyrrolo[2,3-b]pyridin-5-yloxy)benzamide]	< 0.1	8.1	< 15	< 15
CC(C)(O)CCNc1ccc(S(=O)(=O)NC(=O)c2ccc(N3CCN(CC4=C(c5ccc(Cl)cc5)CC(C)(C)CC4)CC3)cc2Oc2cnc3[nH]ccc3c2)cc1[N+](=O)[O-] [Example 12, 4-(4-{[2-(4-chlorophenyl)-4,4-dimethylcyclohex-1-en-1-yl]methyl}piperazin-1-yl)-N-({4-[(3-hydroxy-3-methylbutyl)amino]-3-nitrophenyl}sulfonyl)-2-(1H-pyrrolo[2,3-b]pyridin-5-yloxy)benzamide]	< 0.1	30	27	41
CC1(C)CCC(CN2CCN(c3ccc(C(=O)NS(=O)(=O)c4ccc(NC[C@@H]5[C@H]6COC[C@@H]56)c([N+](=O)[O-])c4)c(Oc4cnc5[nH]ccc5c4)c3)CC2)=C(c2ccc(Cl)cc2)C1 [Example 14, 4-(4-{[2-(4-chlorophenyl)-4,4-dimethylcyclohex-1-en-1-yl]methyl}piperazin-1-yl)-N-[(3-nitro-4-{[(1R,5S,6S)-3-oxabicyclo[3.1.0]hex-6-ylmethyl]amino}phenyl)sulfonyl]-2-(1H-pyrrolo[2,3-b]pyridin-5-yloxy)benzamide]	< 0.1	10	54	61
CC1(C)CCC(CN2CCN(c3ccc(C(=O)NS(=O)(=O)c4ccc(NCC5(O)COC5)c([N+](=O)[O-])c4)c(Oc4cnc5[nH]ccc5c4)c3)CC2)=C(c2ccc(Cl)cc2)C1 [Example 15, 4-(4-{[2-(4-chlorophenyl)-4,4-dimethylcyclohex-1-en-1-yl]methyl}piperazin-1-yl)-N-[(4-{[(3-hydroxyoxetan-3-yl)methyl]amino}-3-nitrophenyl)sulfonyl]-2-(1H-pyrrolo[2,3-b]pyridin-5-yloxy)benzamide]	< 0.1	9.3	< 15	< 15
CC1(C)CCC(CN2CCN(c3ccc(C(=O)NS(=O)(=O)c4ccc(NN5CCOCC5)c([N+](=O)[O-])c4)c(Oc4cnc5[nH]ccc5c4)c3)CC2)=C(c2ccc(Cl)cc2)C1 [Example 16, 4-(4-{[2-(4-chlorophenyl)-4,4-dimethylcyclohex-1-en-1-yl]methyl}piperazin-1-yl)-N-{[4-(morpholin-4-ylamino)-3-nitrophenyl]sulfonyl}-2-(1H-pyrrolo[2,3-b]pyridin-5-yloxy)benzamide]	< 0.1	67	< 15	< 15
CC1(C)CCC(CN2CCN(c3ccc(C(=O)NS(=O)(=O)c4ccc(NNC5CCOCC5)c([N+](=O)[O-])c4)c(Oc4cnc5[nH]ccc5c4)c3)CC2)=C(c2ccc(Cl)cc2)C1 [Example 18, 4-(4-{[2-(4-chlorophenyl)-4,4-dimethylcyclohex-1-en-1-yl]methyl}piperazin-1-yl)-N-({3-nitro-4-[2-(tetrahydro-2H-pyran-4-yl)hydrazinyl]phenyl}sulfonyl)-2-(1H-pyrrolo[2,3-b]pyridin-5-yloxy)benzamide]	< 0.1	47	25	< 15
CC1(C)CCC(CN2CCN(c3ccc(C(=O)NS(=O)(=O)c4ccc(NCC5CCOCC5)c([N+](=O)[O-])c4)c(Oc4cnc5[nH]ccc5c4)c3)CC2)=C(c2ccc(Cl)c(Cl)c2)C1 [Example 53, 4-(4-{[2-(3,4-dichlorophenyl)-4,4-dimethylcyclohex-1-en-1-yl]methyl}piperazin-1-yl)-N-({3-nitro-4-[(tetrahydro-2H-pyran-4-ylmethyl)amino]phenyl}sulfonyl)-2-(1H-pyrrolo[2,3-b]pyridin-5-yloxy)benzamide]	0.2	46		
